Patent US20240327787A1, “CULTURE MEDIUM, COATING MATRIX AND METHOD FOR EXPANDING MIDBRAIN DOPAMINERGIC PROGENITOR CELLS” (NUWACELL BIOTECHNOLOGIES CO., LTD., priority 2022, published 2024)
Counter-ions that a name gives are not always drawn.

Tested on: imDAPs
Experiment: Flow cytometry analysis of FOXA2 expression in expanded imDAPs
Format: cell-based, human
Conditions: VTN-coated
Protocol: 1. Individualize and collect cells by either Accutase or TrypLE treatment.
2. Wash cells with 1 ml PBS and pellet cells at 250×g for 15 sec.
3. Remove supernatant, add ˜200 μl of 4% PFA, mix and fix for 10 min at RT.
4. Pellet cells at 350×g for 5 min.
5. Wash cells by 1 ml of FACS buffer and pellet cells at 350×g for 5 min.
6. Remove supernatant, add 200 μl/tube of FACS buffer/0.1% TritonX, mix for 10 min at RT.
7. Wash cells by 1 ml of FACS buffer and pellet cells at 350×g for 5 min.
8. Remove supernatant, add 200 μl/tube of primary antibody diluted in FACS buffer, mix gently, and incubate for 30 min at RT.
9. Wash cells by 1 ml of FACS buffer and pellet cells at 350×g for 5 min.
10. Remove supernatant, and add 200 μl of secondary antibody diluted in FACS buffer, mix gently, and incubate for 30 min at RT.
11. Wash cells by 1 ml of FACS buffer and pellet cells at 300×g for 5 min.
12. Remove supernatant, add 200 μl of FACS buffer, and run samples on the flow cytometry.
imDAPs were produced according to the method described in CN201910169525.0. The imDAPs (P0) were seeded on VTN-coated plates (1 μg/cm^2) at a low density of 1×10^4 cells/cm^2, and cultured in the expansion medium (50% DMEM/F12, 50% Neurobasal™ medium, 1% (v/v) Glutamax, 2% (v/v) B27 (50×), 0.2 μM LDN193189, 3 μM CHIR99021, 100 ng/mL FGF8b) with either 5 μM Blebbistatin or 10 μM Y27632. Medium was replaced every 3rd day. At Day 6, cells were collected for FACS analysis.
imDAPs were produced according to the method described in CN201910169525.0. The imDAPs (P0) were seeded on DLL4-coated (1 μg/cm^2), VTN-coated (1 μg/cm^2) and DLL4/VTN-coated (1 μg/cm^2 for each) plates at a low density of 1×10^4 cells/cm^2 respectively, and cultured in the expansion medium in the absence or presence of 5 μM SB431542. Medium was replaced every 3rd day until reaching 100% confluence (6 days) for cell collection. The typical cell morphology on day 4 was recorded (FIG. 4A). The cell number of each group was counted by Vi-cell cytometer (FIG. 4B). The cells of each group were stained with Foxa2-PE antibody (BD, #561589), the percentage of Foxa2+ imDAPs were analyzed by flow cytometry (FIG. 4C). The expansion medium used in this example contained the following components: 50% DMEM/F12, 50% Neurobasal™ medium, 1% (v/v) Glutamax, 1% (v/v) B27, 50 μg/ml ascorbic acid, 0.2 μM LDN193189, 100 ng/ml FGF8b, 3 μM CHIR99021 and 10 µM Y27632.
imDAPs were produced according to the method described in CN201910169525.0. The imDAPs (P0) were seeded on DLL4/VTN-coated (1 μg/cm^2 for each) plates at a low density of 1×10^4 cells/cm^2, and cultured in the expansion medium (EM1, EM2, EM3, EM4). Medium was replaced every 3rd day until reaching 100% confluence (6 days) for cell collection. EM1 used in Example 9 contained the following components: 50% DMEM/F12, 50% Neurobasal™ medium, 1% (v/v) Glutamax, 1% (v/v) B27 (50×), 50 μg/ml ascorbic acid, 3 μM CHIR99021, 5 μM SB431542 and 10 μM Y27632. EM2 used in Example 9 contained the following components: 50% DMEM/F12, 50% Neurobasal™ medium, 1% (v/v) Glutamax, 1% (v/v) B27 (50×), 50 μg/ml ascorbic acid, 0.2 μM LDN193189, 3 μM CHIR99021, 5 μM SB431542 and 10 μM Y27632. EM3 used in Example 9 contained the following components: 50% DMEM/F12, 50% Neurobasal™ medium, 1% (v/v) Glutamax, 1% (v/v) B27 (50×), 50 μg/mL ascorbic acid, 0.2 μM LDN193189, 100 ng/ml FGF8b, 3 μM CHIR99021, 5 μM SB431542 and 10 μM Y27632. […]

## C[C@@H](N)[C@H]1CC[C@H](C(=O)Nc2ccncc2)CC1 [Y27632, (R)-(+)-trans-4-(1-aminoethyl)-N-(4-pyridyl) cyclohexanecarboxamide dihydrochloride]
10 μM Y27632 vs 5 μM Blebbistatin in expansion medium, 1×10^4 cells/cm^2, Day 6
  percentage of Foxa2-expressing cells (FIG. 2): capable of improving the percentage of Foxa2-expressing cells than Blebbistatin
Expansion medium with 10 μM Y27632
  percentage of Foxa2-expressing cells during passages: still decreased during passages
